# Results from patent publication US20110269815A1, “METHODS OF REDUCING CELLULAR PROLIFERATION BY INHIBITING ACSVL3” (THE JOHNS HOPKINS UNIVERSITY, priority 2008, published 2011).
# Numbered stars: 1 amine (or outer) side, 2 acyl side, 3 side chain; on linkers, the order of the positions; unused ones are H or OH. Bridge positions count the residues as written; N and C are the ends. Square brackets hold non-standard residues; d marks the D form. Peptide text beside a SMILES is read from it. I, II: the chains in the order shown. * marks the point of attachment. Actinocin(9to1) = Cc1c2oc3c(C)ccc(C(=O)[*:1])c3nc-2c(C(=O)[*:2])c(N)c1=O; NMeV = CN[C@H](C(=O)O)C(C)C; Cbz = O=C(OCc1ccccc1)*; Sar = CNCC(=O)O; CH2F = FC*
# Experiments:
# ACSVL3 [1] = test: Acyl-CoA synthetase activity of control vs ACSVL3-deficient U87 cells with candidate small molecule inhibitors; type: biochemical, human; settings: 80 μM drug; palmitic acid substrate; preliminary studies, FIG. 14
# Protocol: Acyl-CoA synthetase assays. Activation of [1-^14C]palmitate (C16:0) or [1-^14C]lignocerate (C24:0) (Moravek Biochemicals, Brea Calif.) to their CoA derivatives was measured in frozen/thawed cell suspensions or post-nuclear supernatants of xenograft tissue homogenates as previously described (9, 19). Assays contained 15 or 60 μg cell or tissue protein for C16:0 and C24:0 fatty acid substrates, respectively.
# For this study, we examined the effects of candidate small molecule inhibitors on the acyl-CoA synthetase activity of control U87 glioblastoma cells and ACSVL3-deficient U87 cells. The 16-carbon fatty acid, palmitic acid, was used as substrate. Drugs were solubilized in dimethylsulfoxide (DMSO, 10 mM) and diluted with phosphate-buffered saline (PBS, 0.8 mM) prior to their inclusion in enzyme assays; the final concentration of drug in the assay was 80 μM. Control incubations contained the vehicle, DMSO diluted in PBS, only. The assay measures the combined enzyme activity of all acyl-CoA synthetases found in U87 cells that are capable of using palmitic acid as substrate. A specific inhibitor of ACSVL3 is one in which there is partial inhibition of total cellular enzyme activity in control U87 cells (grey bars), but not in ACSVL3-deficient U87 cells (black bars).
# ACSVL3 [2] = test: ACSVL3 expression in U373 cells with transcription or translation inhibitor, without or with HGF; type: cell-based, human; settings: actinomycin D 20 μg/ml, cycloheximide 5 μM; for HGF-induced increase in ACSVL3 expression: HGF 6 hours
# Protocol: We then investigated whether the increase in ACSVL3 protein in U373 cells was due to increased transcription of the ACSVL3 gene, or increased translation of ACSVL3 mRNA. U373 cells were incubated without or with HGF for 6 hours in the absence and presence of an inhibitor of transcription, actinomycin D, or the protein synthesis (translation) inhibitor, cycloheximide. Actinomycin D (20 μg/ml) and cycloheximide (5 μM) were added to the culture medium 16 and 8 hours, respectively, prior to the addition of HGF.
# Akt = Akt signaling after HGF in control and ACSVL3 KD U87 cells (Western blot); type: cell-based, human; settings: HGF 20 ng/ml
# Protocol: A & B. Effect of HGF treatment on Akt phosphorylation and stability. Control and ACSVL3-3 KD U87 cells were incubated with HGF (20 ng/ml) for the indicated time prior to analysis for total Akt and phospho-Akt levels by Western blot. A, LiCOR Odyssey images; control and KD images were obtained simultaneously. B, Quantitation of the LiCOR data. C. Effect of caspase inhibition on Akt stability. One control and two different knockdown clones produced using the ACSVL3-3 shRNA plasmid were incubated with HGF (20 ng/ml) for the indicated time in the absence or presence of the pan-caspase inhibitor, Z-VAD-FMK (50 μM), prior to analysis for total Akt and phospho-Akt levels by Western blot. […] Left, adherent growth was measured 11.5 days post-transfection as described in the legend to FIG. 4A. Right, anchorage-independent growth was measured by colony formation in soft agar on day 17 post-transfection as described in the legend to FIG. 4B. Mean±standard error is shown; statistical significance was determined by one-way ANOVA with Bonferroni's multiple comparison test. ***, p<0.001 vs. control vector; **, p<0.01 vs. control vector; n.s., p>0.05 vs. control myr-Akt.
# Immunohistochemistry, immunofluorescence, and Western blotting. […] ACSVL3 was detected on Western blots with SuperSignal West Pico chemiluminescent substrate (Pierce Biotechnology, Rockford Ill.). […]
# ACSVL3 [3] = test: ACSVL3 expression in U373 glioma cells treated with HGF or EGF (Western blot); type: cell-based, human; settings: for ACSVL3 expression: HGF 20 ng/ml or EGF 30 ng/ml, 16 hrs
# Protocol: (§1) A. Human U87, U373, and Mayo-22 glioma cells were grown to ˜80% confluence. Cells were either untreated or incubated 16 hrs in the presence of HGF (20 ng/ml; gift from Genentech; South San Francisco Calif.) or EGF (30 ng/ml; Calbiochem/EMD; San Diego Calif.) before harvesting and Western blot analysis for ACSVL3 expression. Each lane contained 30 μg total cellular protein. Actin was detected as a loading control. The three sections were from the same Western blot; images were obtained simultaneously. B. U87 cells stably expressing constitutively active EGFR (EGFRvIII) or corresponding control U87 cells were harvested and analyzed by Western blot. Actin was detected as a loading control. C. Tumors were produced in the flanks of athymic nude mice (n=12) by s.c. injection (2 sites per mouse) of 4×10^6 U87 cells. When tumors size reached ˜300 mm^3 (day 14), animals were randomly divided into two groups of 6 mice. One group received i.p. injection (100 μg/20 g body wt) of anti-HGF mAb (L2G7) and the other group received isotype control mAb (5G8) on days 14, 16, and 18. Mice were sacrificed on day 20. Tumor homogenates (50 μg protein) were subjected to Western blot analysis for ACSVL3 expression. Actin expression was used as a loading control.
# (§2) Immunohistochemistry, immunofluorescence, and Western blotting. Immunohistochemical staining for ACSVL3 and ACSBG1, and immunofluorescence analysis of ACSVL3, were performed using affinity-purified antibodies as described (9, 15). ACSVL3 was detected on Western blots with SuperSignal West Pico chemiluminescent substrate (Pierce Biotechnology, Rockford Ill.). Total and phospho-Akt (ser473) were detected with antibodies from BD Biosciences (San Jose Calif.) and Cell Signaling Technology (Danvers Mass.), respectively, and quantitated with the LiCOR Odyssey dual wavelength infrared system. Protein was determined by the method of Lowry et al. (16).
# Further characterization of induction of ACSVL3 expression in U373 cells. Human U373 glioma cells have low ACSVL3 expression unless treated with hepatocyte growth factor (HGF). […]
# ACSVL3 [4] = test: ACSVL3 expression in U87 glioma cells treated with HGF or EGF (Western blot); type: cell-based, human; settings: HGF 20 ng/ml or EGF 30 ng/ml, 16 hrs
# Protocol: as §1, with “One group received i.p. injection (100 μg/20 g body wt) of anti-HGF mAb (L2G7) and the other group received isotype control mAb (5G8) on days 14, 16, and 18. Mice were sacrificed on day 20. Tumor homogenates (50 μg protein) were subjected to Western blot analysis for ACSVL3 expression. Actin expression was used as a loading control.” left out
# as §2, with “Immunohistochemical staining for ACSVL3 and ACSBG1, and immunofluorescence analysis of ACSVL3, were performed using affinity-purified antibodies as described (9, 15).” left out
# ACSVL3 [5] = test: ACSVL3 expression in Mayo-22 glioma cells treated with HGF or EGF (Western blot); type: cell-based, human; settings: Mayo 22 cells; HGF 20 ng/ml or EGF 30 ng/ml, 16 hrs
# Protocol: as §1, with “One group received i.p. injection (100 μg/20 g body wt) of anti-HGF mAb (L2G7) and the other group received isotype control mAb (5G8) on days 14, 16, and 18. Mice were sacrificed on day 20. Tumor homogenates (50 μg protein) were subjected to Western blot analysis for ACSVL3 expression. Actin expression was used as a loading control.” left out
# as §2, with “Immunohistochemical staining for ACSVL3 and ACSBG1, and immunofluorescence analysis of ACSVL3, were performed using affinity-purified antibodies as described (9, 15).” left out
molecule,measurement,setting,value
CN(C)CCCN1c2ccccc2Sc2ccc(C(F)(F)F)cc21 [Triflupromazine],inhibition of acyl-CoA synthetase activity in control vs ACSVL3-deficient U87 cells (specificity for ACSVL3),ACSVL3 [1],exhibited specificity for ACSVL3
"Cc1c2oc3c(C)ccc(C(=O)N[C@@H]4C(=O)N[C@H](C(C)C)C(=O)N5CCC[C@H]5C(=O)N(C)CC(=O)N(C)[C@@H](C(C)C)C(=O)O[C@@H]4C)c3nc-2c(C(=O)N[C@@H]2C(=O)N[C@H](C(C)C)C(=O)N3CCC[C@H]3C(=O)N(C)CC(=O)N(C)[C@@H](C(C)C)C(=O)O[C@@H]2C)c(N)c1=O [actinomycin D] (I: T[dV]P[Sar][NMeV] / II: T[dV]P[Sar][NMeV]; ester I:1-I:C, II:1-II:C; linker I:N-II:N via Actinocin(9to1))",HGF-induced increase in ACSVL3 expression,ACSVL3 [2],blocked the HGF-induced increase in ACSVL3 expression
same,ACSVL3 expression in the absence of HGF,ACSVL3 [2],neither actinomycin D nor cycloheximide affected ACSVL3 expression
CN(C)CCCN1c2ccccc2Sc2ccc(Cl)cc21 [chlorpromazine],inhibition of acyl-CoA synthetase activity in control vs ACSVL3-deficient U87 cells (specificity for ACSVL3),ACSVL3 [1],exhibited specificity for ACSVL3
C[C@@H]1C[C@@H]([C@H](O)CC2CC(=O)NC(=O)C2)C(=O)[C@@H](C)C1 [cycloheximide],HGF-induced increase in ACSVL3 expression,ACSVL3 [2],blocked the HGF-induced increase in ACSVL3 expression
same,ACSVL3 expression in the absence of HGF,ACSVL3 [2],neither actinomycin D nor cycloheximide affected ACSVL3 expression
Cc1cc(O)c2c(c1)C(=O)c1cc(O)cc(O)c1C2=O [emodin],inhibition of acyl-CoA synthetase activity in control vs ACSVL3-deficient U87 cells (specificity for ACSVL3),ACSVL3 [1],inhibit enzyme activity similarly in both control and ACSVL3-deficient U87 cells
OCCN1CCN(CC/C=C2/c3ccccc3Sc3ccc(C(F)(F)F)cc32)CC1 [flupenthixol],inhibition of acyl-CoA synthetase activity in control vs ACSVL3-deficient U87 cells (specificity for ACSVL3),ACSVL3 [1],"inhibit both control and ACSVL3-deficient cells, but show greater inhibition in control U87 cells"
O=C1NCN(c2ccccc2)C12CCN(CCCC(c1ccc(F)cc1)c1ccc(F)cc1)CC2 [fluspirilene],inhibition of acyl-CoA synthetase activity in control vs ACSVL3-deficient U87 cells (specificity for ACSVL3),ACSVL3 [1],inhibit enzyme activity similarly in both control and ACSVL3-deficient U87 cells
OCCN1CCN(CCCN2c3ccccc3Sc3ccc(Cl)cc32)CC1 [perphenizine],inhibition of acyl-CoA synthetase activity in control vs ACSVL3-deficient U87 cells (specificity for ACSVL3),ACSVL3 [1],exhibited specificity for ACSVL3
Nc1ccc(/N=N/c2ccccc2)c(N)n1 [phenazopyridine],inhibition of acyl-CoA synthetase activity in control vs ACSVL3-deficient U87 cells (specificity for ACSVL3),ACSVL3 [1],inhibit enzyme activity similarly in both control and ACSVL3-deficient U87 cells
CC(CN1c2ccccc2Sc2ccccc21)N(C)C (stereo not shown) [promethazine],inhibition of acyl-CoA synthetase activity in control vs ACSVL3-deficient U87 cells (specificity for ACSVL3),ACSVL3 [1],inhibit enzyme activity similarly in both control and ACSVL3-deficient U87 cells
CN1CCN(CCCN2c3ccccc3Sc3ccc(C(F)(F)F)cc32)CC1 [trifluperazine],inhibition of acyl-CoA synthetase activity in control vs ACSVL3-deficient U87 cells (specificity for ACSVL3),ACSVL3 [1],"inhibit both control and ACSVL3-deficient cells, but show greater inhibition in control U87 cells"
Cbz-Val-Ala-Asp-CH2F,Akt response to HGF stimulation under caspase inhibition,"Akt; ACSVL3 KD U87 cells, Z-VAD-FMK 50 μM",normalized the Akt response to HGF stimulation
"EGF: EGFR ligand, epidermal growth factor",ACSVL3 expression,ACSVL3 [3],increased ACSVL3 expression
same,ACSVL3 expression,ACSVL3 [4],not increased above its high basal expression levels
same,ACSVL3 expression,ACSVL3 [5],increased ACSVL3 expression
"HGF: Hepatocyte growth factor, c-Met agonist",time course of induction of ACSVL3 protein,ACSVL3 [3]; FIG. 12,increased in U373 cells as early as 2 hours
same,ACSVL3 expression,ACSVL3 [3],induce ACSVL3 expression levels
same,ACSVL3 expression,ACSVL3 [4],not increased above its high basal expression levels
same,Akt phosphorylation (Ser-473),Akt; control-transfected U87 glioma cells,increased rapidly and remained elevated for up to two hours
same,ACSVL3 expression,ACSVL3 [5],induce ACSVL3 expression levels
